For 24 compounds, IC50 results are on record in patent US20230357162A1, “COMPOUNDS, COMPOSITIONS AND METHODS” (Denali Therapeutics Inc., priority 2020, published 2023).

As a reminder, the IC50 is the point on the concentration scale where inhibition reaches its midpoint.

Structures can show the parent of a compound that is named as a salt.

In the assay the test system is IL-1β secretion, THP-1 cells. In words: IL-1β secretion assay in PMA-differentiated THP-1 cells stimulated with LPS and nigericin (ELISA readout). It is filed as cell-based. To be noted: Homo sapiens, THP-1, inhibition of IL-1β secretion, 25 ng/mL LPS then nigericin. As for the experimental part:
Compounds as provided herein were tested in the following assay. Cell culture medium employed contained RPMI 1640 medium (89%), FBS (10%), Pen/Strep (1%), and 2-mercaptoethanol (0.05 mM). Freezing medium was made up of 90% FBS and 10% DMSO. THP-1 cells were removed from the liquid nitrogen and placed into a 37° C. water bath to thaw, until signs of ice dissipated. The cells were then added to 9 mL of warm cell culture medium and centrifuged for 5 minutes at 1000 rpm. The supernatant was discarded, and the cells were resuspended in new cell culture medium. THP-1 cells were then split and cultured in the cell culture medium, being passaged every 2-3 days with the cell density will be maintained between 5×10^5 and 1.5×10^6 viable cells/mL.
PMA was dissolved in DMSO to make a stock solution at 5 mg/ml and stored in 10 µl aliquots at -20° C. for single use. PMA is added to normal growth medium. LPS was diluted with 1 mL of water solution to provide a 1 mg/mL stock solution and stored in 15 µl aliquots at -20° C. for single use. Nigericin is diluted in ice cold 100% ethanol to 5 mg/ml (6.7 mM) and stored in 75 µL aliquots at -20° C. for single use. Serum-free media contains RPMI 1640 medium (99%), Pen/Strep (1%), and 2-mercaptoethanol (0.05 mM). The two control conditions used to qualify and normalize test compound dose-response curves were as follows: High Control = 25 ng/mL LPS, 5 µM Nigericin, 0.5% DMSO, Low Control = 25 ng/mL, LPS, 0.5% DMSO.
THP-1 cells were diluted to provide a suspension at a concentration of 1.0×10^6 cells/mL with the total volume of suspension required to enable the desired number of assay plates. The growth media was supplemented with PMA (5 ng/mL final concentration) and the cells were incubated at 37° C. under a humidified atmosphere of 5% CO2 for 40 h.
All media was carefully aspirated from each culture flask. The cells were washed carefully with 1x DPBS. The cells were then briefly digested with trypsin LE for 5 minutes at 23° C. and immediately resuspended in cell growth media. After resuspension, the cells were centrifuged at 1000 rpm for 3 minutes and the supernatant was discarded. The cells were resuspended in DPBS and once again centrifuged at 1000 rpm for 5 minutes. The supernatant was discarded and the cell pellet was resuspended in serum-free media supplemented with LPS (25 ng/mL final concentration) to enable the distribution of 30 K THP-1 cells within 45 µL of media into each well of 384-well PDL-coated plates. The 384-well plates were then incubated at 37° C. under a humidified atmosphere of 5% CO2 for 2 h. Following this period, test compounds were dispensed by Tecan across the desired concentration range with all wells normalized to a final 0.5 % DMSO concentration. The plates were then then incubated at 37° C. under a humidified atmosphere of 5% CO2 for 1 h. Following this period, 5 µL of the […] nigericin stock solution was added to each of the appropriate wells and plates were centrifuged at 1000 rpm for 30 seconds. The plates were the immediately reintroduced to the incubator at 37° C. under a humidified atmosphere of 5% CO2 for 2 h. After this time, 35 µL/well of supernatant was collected and transferred into v-bottom plate and centrifuged at 1000 rpm for 1 minute. These supernatant aliquots were analyzed using an IL-Iβ detection kit as described below. If needed, the test samples could be snap frozen and stored at -80° C. until analyzed.
To prepare each ELISA plate, capture antibody (mAb Mt175) was diluted with PBS to a final concentration of 2 µg/mL and then 20 µL of this solution was added to each well of the ELISA plate. Each plate was allowed to incubate overnight at 4° C. The next day, the capture antibody solution was removed and discarded. Each ELISA plate was washed 4 times with PBST followed by the addition of 25 µL/well of blocking buffer (Licor-927-40010) supplemented with 0.1% Tween 20. Each ELISA plate was then allowed to incubate for 1 hour at 23° C. […]

Consider `CC(C)c1nn(CC(=O)Nc2cnn(C3CCC3)c2)c(=O)c2ccc(Br)cc12` [Example 48, 2-(6-bromo-1-oxo-4-propan-2-ylphthalazin-2-yl)-N-(1-cyclobutylpyrazol-4-yl)acetamide], for which the IC50 is less than 10 µM (class column of Table 3) and 4.09 µM (numeric column of Table 3).
In the same order, the values of `CC(C)c1nn(CC(=O)Nc2cnc(Cl)c(F)c2)c(=O)c2ccc(Br)cc12` [Example 112, 2-(6-bromo-1-oxo-4-propan-2-ylphthalazin-2-yl)-N-(6-chloro-5-fluoropyridin-3-yl)acetamide] are less than 10 µM and 1.12 µM.
For `Cc1cnn(C)c1NC(=O)Cn1nc(C(C)C)c2cc(Br)ccc2c1=O` [Example 63, 2-(6-bromo-1-oxo-4-propan-2-ylphthalazin-2-yl)-N-(2,4-dimethylpyrazol-3-yl)acetamide] the same measures were 10 to 15 µM and 12.8 µM.
On to `CC(C)c1nn(CC(=O)Nc2ccc(C#N)cn2)c(=O)c2ccc(Br)cc12` [Example 119, 2-(6-bromo-1-oxo-4-propan-2-ylphthalazin-2-yl)-N-(5-cyanopyridin-2-yl)acetamide], for which the concentration for half-maximal inhibition (IC50) by setting is: (class column of Table 3) less than 10 µM; (numeric column of Table 3) 0.163 µM.
For `CC(C)c1nn(CC(=O)Nc2ncc(Cl)cn2)c(=O)c2ccc(Br)cc12` [Example 120, 2-(6-bromo-1-oxo-4-propan-2-ylphthalazin-2-yl)-N-(5-chloropyrimidin-2-yl)acetamide] the same measures were less than 10 µM and 0.025 µM.
For `CC(C)c1nn(CC(=O)NC(C)c2ccccc2)c(=O)c2ccc(Br)cc12` (stereo not drawn) [Example 72, 2-(6-bromo-1-oxo-4-propan-2-ylphthalazin-2-yl)-N-(1-phenylethyl)acetamide] the same measures were less than 10 µM and 9.04 µM.
In the same order, the values of `O=C(Cn1nc(C(F)F)c2nc(C(F)(F)F)ccc2c1=O)Nc1ncc(F)cn1` [Example 105, 2-[8-(difluoromethyl)-5-oxo-2-(trifluoromethyl)pyrido[2,3-d]pyridazin-6-yl]-N-(5-fluoropyrimidin-2-yl)acetamide] are less than 10 µM and 0.614 µM.
The compound `CC(C)c1nn(CC(=O)Nc2c(F)cncc2F)c(=O)c2ccc(Br)cc12` [Example 37, 2-(6-bromo-1-oxo-4-propan-2-ylphthalazin-2-yl)-N-(3,5-difluoropyridin-4-yl)acetamide] yielded an IC50 (class column of Table 3) of less than 10 µM and an IC50 (numeric column of Table 3) of 4.95 µM.
In the same order, the values of `CC(F)c1nn(CC(=O)Nc2ncc(F)cn2)c(=O)c2ccc(Br)c(F)c12` (stereo not drawn) [Example 144, 2-[6-bromo-5-fluoro-4-(1-fluoroethyl)-1-oxophthalazin-2-yl]-N-(5-fluoropyrimidin-2-yl)acetamide] are less than 10 µM and 0.191 µM.
On to `C[C@H]1C[C@H](Oc2nn(CC(=O)Nc3ncc(F)cn3)c(=O)c3ccc(Br)cc23)C1` [Example 158, 2-[6-bromo-4-(3-trans-methylcyclobutoxy)-1-oxo-phthalazin-2-yl]-N-(5-fluoropyrimidin-2-yl)acetamide], for which the IC50 was less than 10 µM (class column of Table 3) and 0.309 µM (numeric column of Table 3).
In the case of `CC(C)c1nn(CC(=O)NC2CC(n3cccn3)C2)c(=O)c2ccc(Br)cc12` (stereo not drawn) [Example 117, 2-(6-bromo-1-oxo-4-propan-2-ylphthalazin-2-yl)-N-(3-pyrazol-1-ylcyclobutyl)acetamide], the IC50 is less than 10 µM (class column of Table 3) and 6.45 µM (numeric column of Table 3).
Take `CC(C)c1nn(CC(=O)Nc2ncc(F)cc2C#N)c(=O)c2ccc(Br)cc12` [Example 114, 2-(6-bromo-1-oxo-4-propan-2-ylphthalazin-2-yl)-N-(3-cyano-5-fluoropyridin-2-yl)acetamide]: the IC50 is, setting by setting: (class column of Table 3) less than 10 µM; (numeric column of Table 3) 1.77 µM.
As to `O=C(Cn1nc(C(F)F)c2cc(Br)ccc2c1=O)Nc1ncc(F)cn1` [Example 103, 2-[6-bromo-4-(difluoromethyl)-1-oxophthalazin-2-yl]-N-(5-fluoropyrimidin-2-yl)acetamide], the IC50 by setting is: (class column of Table 3) less than 10 µM; (numeric column of Table 3) 0.265 µM.
For `O=C(Cn1nc(OC2CC2)c2cc(Br)ccc2c1=O)N[C@@H]1CCCNC1` [Example 176, 2-(6-bromo-4-cyclopropyloxy-1-oxophthalazin-2-yl)-N-[(3R)-piperidin-3-yl]acetamide HCl salt] the same measures were less than 10 µM and 4.27 µM.
In the same order, the values of `CCN1CCCC(NC(=O)Cn2nc(C(F)F)c3c(F)c(Br)ccc3c2=O)C1` (stereo not drawn) [Example 183, 2-[6-bromo-4-(difluoromethyl)-5-fluoro-1-oxophthalazin-2-yl]-N-(1-ethylpiperidin-3-yl)acetamide] are less than 10 µM and 0.485 µM.
In the same order, the values of `CC(C)c1nn(CC(=O)Nc2nn(C)cc2F)c(=O)c2ccc(Br)cc12` [Example 62, 2-(6-bromo-1-oxo-4-propan-2-ylphthalazin-2-yl)-N-(4-fluoro-1-methylpyrazol-3-yl)acetamide] are 10 to 15 µM and 10.3 µM.
`CC(C)c1nn(CC(=O)Nc2ccc(C3CC3)cn2)c(=O)c2ccc(Br)cc12` [Example 111, 2-(6-bromo-1-oxo-4-propan-2-ylphthalazin-2-yl)-N-(5-cyclopropylpyridin-2-yl)acetamide]: the IC50 is less than 10 µM (class column of Table 3) and 0.796 µM (numeric column of Table 3).
In the same order, the values of `CC(C)c1nn(CC(=O)Nc2ncncc2F)c(=O)c2c(F)cc(Br)cc12` [Example 92, 2-(6-bromo-8-fluoro-1-oxo-4-propan-2-ylphthalazin-2-yl)-N-(5-fluoropyrimidin-4-yl)acetamide] are less than 10 µM and 0.741 µM.
For `CCN1CCC[C@@H](NC(=O)Cn2nc(C(C)C)c3cc(Cl)ccc3c2=O)C1` [Example 79, 2-(6-chloro-1-oxo-4-propan-2-ylphthalazin-2-yl)-N-[(3R)-1-ethylpiperidin-3-yl]acetamide] the same measures were less than 10 µM and 0.61 µM.
With `O=C(Cn1nc(CF)c2cc(C(F)(F)F)ccc2c1=O)Nc1ncc(F)cn1` [Example 147, 2-[4-(fluoromethyl)-1-oxo-6-(trifluoromethyl)phthalazin-2-yl]-N-(5-fluoropyrimidin-2-yl)acetamide], the half-maximal inhibitory concentration (IC50) by setting is: (class column of Table 3) less than 10 µM; (numeric column of Table 3) 0.279 µM.
As for `CC(C)c1nn(CC(=O)Nc2ncc(F)cn2)c(=O)c2ccc(Br)cc12` [Example 113, 2-(6-bromo-1-oxo-4-propan-2-ylphthalazin-2-yl)-N-(5-fluoropyrimidin-2-yl)acetamide], the IC50 reads like this: (class column of Table 3) less than 10 µM; (numeric column of Table 3) 0.035 µM.
For `CC(C)c1nn(CC(=O)NC2CCC(=O)N(C)C2)c(=O)c2ccc(Br)cc12` (stereo not drawn) [Example 66, 2-(6-bromo-1-oxo-4-propan-2-ylphthalazin-2-yl)-N-(1-methyl-6-oxopiperidin-3-yl)acetamide] the same measures were less than 10 µM and 2.44 µM.
In the same order, the values of `O=C(Cn1nc(C(F)F)c2c(F)c(C3CCC3)ccc2c1=O)Nc1ncc(F)cn1` [Example 185, 2-[6-cyclobutyl-4-(difluoromethyl)-5-fluoro-1-oxophthalazin-2-yl]-N-(5-fluoropyrimidin-2-yl)acetamide] are less than 10 µM and 2.09 µM.
`O=C(Cn1nc(C2CC2)c2cc(Br)ccc2c1=O)Nc1ncc(F)cn1` [Example 164, 2-(6-bromo-4-cyclopropyl-1-oxophthalazin-2-yl)-N-(5-fluoropyrimidin-2-yl)acetamide] returned an IC50 (class column of Table 3) of less than 10 µM and an IC50 (numeric column of Table 3) of 0.149 µM.
